Experimental data taken from PubChem BioAssay AID328 (DTP/NCI, 2004).
Several values for one entry are separate records, joined by “and”; a condition that tells them apart may be missing. Equal values may be shown once. Inconclusive results and toxic doses are left out. The calls were made as follows: active = survival T/C of 150% or more; inactive = T/C below 125% in these data.

System: BDF1 mice, P388 leukemia ip, median survival T/C
Experiment: NCI In Vivo Anticancer Drug Screen. Data for tumor model P388 Leukemia (intraperitoneal) in B6D2F1 (BDF1) mice
Conditions: endpoint: median survival time, higher = longer survival
Outline: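 Survival ratio, drug arm over vehicle arm, in mice with a transplanted tumour.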

[1] = dose: 25.0 mg/kg/injection, schedule: Q01DX009 (ip), vehicle: saline with Tween-80
[2] = dose: 50.0 mg/kg/injection, schedule: Q01DX009 (ip), vehicle: saline with Tween-80
[3] = dose: 100.0 mg/kg/injection, schedule: Q01DX009 (ip), vehicle: saline with Tween-80
[4] = dose: 12.5 mg/kg/injection, schedule: Q04DX003 (ip), vehicle: saline
[5] = dose: 100.0 mg/kg/injection, schedule: Q04DX003 (ip), vehicle: saline
[6] = dose: 1.0 mg/kg/injection, schedule: Q01DX009 (ip), vehicle: saline
[7] = dose: 2.0 mg/kg/injection, schedule: Q01DX009 (ip), vehicle: saline
[8] = dose: 3.0 mg/kg/injection, schedule: Q01DX009 (ip), vehicle: saline
[9] = dose: 3.0 mg/kg/injection, schedule: Q04DX003 (ip), vehicle: saline
[10] = dose: 4.0 mg/kg/injection, schedule: Q01DX009 (ip), vehicle: saline
[11] = dose: 50.0 mg/kg/injection, schedule: Q01DX009 (ip), vehicle: saline
[12] = dose: 200.0 mg/kg/injection, schedule: Q04DX003 (ip), vehicle: saline
[13] = dose: 200.0 mg/kg/injection, schedule: Q01DX009 (ip), vehicle: saline with Tween-80

Measured: T/C

O=[N+]([O-])c1ccc(N/N=C(\COc2ccccc2)c2ccccc2)c([N+](=O)[O-])c1
inactive: dose: 6.25 mg/kg/injection, schedule: Q01DX001 (ip), vehicle: saline with Tween-80 95 % of control | dose: 12.5 mg/kg/injection, schedule: Q01DX001 (ip), vehicle: saline with Tween-80 100 % of control | dose: 25.0 mg/kg/injection, schedule: Q01DX001 (ip), vehicle: saline with Tween-80 104 % of control

O=C(O)C1OC(n2cc([N+](=O)[O-])c(=O)[nH]c2=O)C(O)C1O (stereo not given)
inactive: [1] 95 % of control | [2] 96 % of control | [3] 93 % of control

CCn1c(O)c(N=NC(=S)NC)c2ccccc21
inactive: dose: 37.5 mg/kg/injection, schedule: Q01DX009 (ip), vehicle: saline with Tween-80 86 % of control

NC(CO)CSCc1ccccc1 (stereo not given)
inactive: [4] 114 % of control | dose: 25.0 mg/kg/injection, schedule: Q04DX003 (ip), vehicle: saline 104 % of control | dose: 50.0 mg/kg/injection, schedule: Q04DX003 (ip), vehicle: saline 98 % of control | [5] 97 % of control

COCCOC1=C(N2CC2)C(=O)C(OCCOC)=C(N2CC2)C1=O
inactive: dose: 0.26 mg/kg/injection, schedule: Q01DX009 (ip), vehicle: saline 99 % of control | dose: 0.4 mg/kg/injection, schedule: Q01DX009 (ip), vehicle: saline 108 % of control | dose: 0.88 mg/kg/injection, schedule: Q04DX003 (ip), vehicle: saline 121 % of control | dose: 0.9 mg/kg/injection, schedule: Q01DX009 (ip), vehicle: saline 108 % of control | dose: 1.32 mg/kg/injection, schedule: Q04DX003 (ip), vehicle: saline 113 % of control | [10] 109 % of control and 115 % of control | [4] 118 % of control
active: dose: 0.88 mg/kg/injection, schedule: Q01DX009 (ip), vehicle: saline 163 % of control | [6] 171 % of control and 180 % of control | dose: 1.32 mg/kg/injection, schedule: Q01DX009 (ip), vehicle: saline 209 % of control | [7] 223 % of control and 263 % of control and 220 % of control | [8] 231 % of control | [9] 152 % of control | dose: 3.3 mg/kg/injection, schedule: Q04DX003 (ip), vehicle: saline 186 % of control | dose: 5.0 mg/kg/injection, schedule: Q04DX003 (ip), vehicle: saline 209 % of control | dose: 6.25 mg/kg/injection, schedule: Q04DX003 (ip), vehicle: saline 236 % of control | dose: 7.5 mg/kg/injection, schedule: Q04DX003 (ip), vehicle: saline 272 % of control

COc1cccc2c1C(=O)c1c(O)c3c(c(O)c1C2=O)C[C@@](O)(/C(C)=N/NC(=O)c1ccccc1)C[C@@H]3OC1CC(N)C(O)C(C)O1 (stereo not given in full)
active: dose: 0.38 mg/kg/injection, schedule: Q01DX009 (ip), vehicle: water 166 % of control | dose: 0.75 mg/kg/injection, schedule: Q01DX009 (ip), vehicle: water 166 % of control | dose: 1.5 mg/kg/injection, schedule: Q01DX009 (ip), vehicle: saline 216 % of control | [8] 250 % of control | [9] 226 % of control | dose: 6.0 mg/kg/injection, schedule: Q01DX009 (ip), vehicle: saline 166 % of control | dose: 6.0 mg/kg/injection, schedule: Q01DX009 (ip), vehicle: water 164 % of control | dose: 6.0 mg/kg/injection, schedule: Q04DX003 (ip), vehicle: saline 208 % of control | dose: 6.5 mg/kg/injection, schedule: Q04DX003 (ip), vehicle: water 171 % of control | dose: 10.8 mg/kg/injection, schedule: Q04DX003 (ip), vehicle: water 165 % of control | dose: 12.0 mg/kg/injection, schedule: Q04DX003 (ip), vehicle: saline 195 % of control
inactive: dose: 12.0 mg/kg/injection, schedule: Q01DX009 (ip), vehicle: saline 95 % of control | dose: 18.0 mg/kg/injection, schedule: Q04DX003 (ip), vehicle: water 103 % of control
245 % of control and 110 % of control: dose: 3.0 mg/kg/injection, schedule: Q01DX009 (ip), vehicle: water
123 % of control and 217 % of control: dose: 1.5 mg/kg/injection, schedule: Q01DX009 (ip), vehicle: water

CN(C)C1C(=O)C(C(N)=O)=C(O)C2(O)C(=O)C3=C(O)c4c(O)cccc4C(C)(O)C3CC12.O.O.O.[Al] (stereo not given)
inactive: dose: 100.0 mg/kg/injection, schedule: Q01DX009 (ip), vehicle: Klucel (hydroxypropylcellulose) (HPC) 101 % of control | dose: 200.0 mg/kg/injection, schedule: Q01DX009 (ip), vehicle: Klucel (hydroxypropylcellulose) (HPC) 92 % of control | dose: 400.0 mg/kg/injection, schedule: Q01DX009 (ip), vehicle: Klucel (hydroxypropylcellulose) (HPC) 121 % of control

C[CH2][Ge]1([CH2]C)[CH2]CC2(CCN(CCCN(C)C)C2)C[CH2]1
inactive: dose: 0.5 mg/kg/injection, schedule: Q01DX009 (ip), vehicle: saline 105 % of control | [6] 102 % of control | [7] 103 % of control | [10] 104 % of control and 118 % of control | dose: 8.0 mg/kg/injection, schedule: Q01DX009 (ip), vehicle: saline 102 % of control | dose: 16.0 mg/kg/injection, schedule: Q01DX009 (ip), vehicle: saline 103 % of control | dose: 32.0 mg/kg/injection, schedule: Q01DX009 (ip), vehicle: saline 100 % of control | [11] 102 % of control | dose: 60.0 mg/kg/injection, schedule: Q01DX009 (ip), vehicle: saline with Tween-80 92 % of control | dose: 64.0 mg/kg/injection, schedule: Q01DX009 (ip), vehicle: saline 91 % of control

CCCNc1ncnc2c1cnn2C
inactive: dose: 12.5 mg/kg/injection, schedule: Q01DX009 (ip), vehicle: saline 88 % of control | dose: 25.0 mg/kg/injection, schedule: Q01DX009 (ip), vehicle: saline 112 % of control | [11] 108 % of control | [5] 120 % of control | [12] 120 % of control

C1CCNCC1.COc1ccccc1C(=O)[CH-]C(=O)C(F)(F)F.COc1ccccc1C(=O)[CH-]C(=O)C(F)(F)F.COc1ccccc1C(=O)[CH-]C(=O)C(F)(F)F.COc1ccccc1C(=O)[CH-]C(=O)C(F)(F)F.[Eu+3]
inactive: [11] 88 % of control | dose: 100.0 mg/kg/injection, schedule: Q01DX009 (ip), vehicle: saline 119 % of control

O=C1Nc2ccccc2SC1C1SC(=S)N(Cc2ccccc2)C1=O (stereo not given)
inactive: [2] 102 % of control | [3] 86 % of control | [13] 86 % of control

O=C(O)CC/C(=N\O)c1cccc([N+](=O)[O-])c1
inactive: dose: 100.0 mg/kg/injection, schedule: Q04DX003 (ip), vehicle: saline with Tween-80 100 % of control | dose: 200.0 mg/kg/injection, schedule: Q04DX003 (ip), vehicle: saline with Tween-80 100 % of control | dose: 400.0 mg/kg/injection, schedule: Q04DX003 (ip), vehicle: saline with Tween-80 95 % of control

NC(=S)N/N=C\c1ncnc2nc[nH]c12
inactive: dose: 1.0 mg/kg/injection, schedule: Q01DX009 (ip), vehicle: Klucel (hydroxypropylcellulose) (HPC) 107 % of control | dose: 2.0 mg/kg/injection, schedule: Q01DX009 (ip), vehicle: Klucel (hydroxypropylcellulose) (HPC) 111 % of control
active: dose: 4.0 mg/kg/injection, schedule: Q01DX009 (ip), vehicle: Klucel (hydroxypropylcellulose) (HPC) 150 % of control | dose: 8.0 mg/kg/injection, schedule: Q01DX009 (ip), vehicle: Klucel (hydroxypropylcellulose) (HPC) 160 % of control | dose: 16.0 mg/kg/injection, schedule: Q01DX009 (ip), vehicle: Klucel (hydroxypropylcellulose) (HPC) 175 % of control | dose: 32.0 mg/kg/injection, schedule: Q01DX009 (ip), vehicle: Klucel (hydroxypropylcellulose) (HPC) 185 % of control

O=S(=O)(CCl)OCCCl
active: [3] 214 % of control | [13] 177 % of control
inactive: [1] 123 % of control | [2] 107 % of control

CC1OCC2OC(C)OC(C(COC(c3ccccc3)(c3ccccc3)c3ccccc3)OS(C)(=O)=O)C2O1 (stereo not given)
inactive: [5] 100 % of control | [12] 104 % of control | dose: 400.0 mg/kg/injection, schedule: Q04DX003 (ip), vehicle: saline 108 % of control

Cc1ccc(Nc2nc(N)nc(CNc3ccc(Cl)cc3)n2)cc1
inactive: dose: 100.0 mg/kg/injection, schedule: Q04DX003 (ip), vehicle: saline sonified 110 % of control | dose: 200.0 mg/kg/injection, schedule: Q04DX003 (ip), vehicle: saline sonified 100 % of control | dose: 400.0 mg/kg/injection, schedule: Q04DX003 (ip), vehicle: saline sonified 100 % of control
